Drawing on PubChem BioAssay (NCI), this text covers TGI for 15 compounds.

Assay in all cases: NCI anticancer screen, dose series, 48 h
For test [1], the system named is MDA-N.
Test [2] has as its system T-47D breast.
In test [3] the test system is HS 578T breast.
For test [4], the system named is NCI-H23 lung.
Test [5] has as its system OVCAR-3 ovarian.
Test [6] has as its system SF-295 CNS.
In test [7] the test system is SF-539 CNS.
Test [8] concerns K-562 leukemia.
The subject of test [9] is BT-549 breast.
For test [10], the system named is NCI/ADR-RES ovarian.

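96-well plates; 48 h exposure; 5 concentrations. Endpoints by linear interpolation between flanking doses. Not reached: highest tested concentration assigned. TGI: concentration producing complete growth inhibition.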 Bounds are passed on as bounds.

With `CC(=O)/C=C/C1=C(C)CCCC1(C)CC(C)C` (configuration not stated), the TGI in test [1] was greater than 100 µM; in test [2], 55.5 µM; in test [3], greater than 100 µM; in test [4], greater than 100 µM; in [5] it was 83 µM; in [6], greater than 100 µM. Also, the TGI is greater than 100 µM in test [7] and 40.8 µM in test [8].
Regarding `CCOC(=O)Nc1sc2c(c1C#N)CCCC2`, the TGI in test [1], in [9], in test [3], in test [4], in [5] and in test [6] was greater than 100 µM throughout. In [8], this compound showed a TGI greater than 100 µM.
Regarding `CC1CN(C)c2ccccc2N=C1NN` (configuration not stated), the TGI in test [1], in test [10], in test [9], in test [3], in test [4] and in test [5] was greater than 100 µM throughout. The TGI in [6] and in [8] was greater than 100 µM throughout.
In the case of `O=S(=O)(c1ccccc1)c1cccc2c1NCCC2`, the TGI is greater than 100 µM in [1]; greater than 100 µM in test [10]; 83 µM in test [9]; greater than 100 µM in test [3]; greater than 100 µM in [5]; greater than 100 µM in [6]. Besides, the TGI in test [7] and in test [8] was greater than 100 µM in each case.
With `CC(=O)N1C(C(=O)NC2CCCCC2)CSC1c1ccccc1` (configuration not stated), the TGI in [1], in test [10], in test [9], in test [3], in [4] and in test [5] was greater than 100 µM each time. The TGI in test [6], in test [7] and in test [8] was greater than 100 µM throughout.
On to `O=C(/C=C/c1ccc2c(c1)OCO2)c1ccc(O)cc1`, for which the TGI in [1] came out at 22.9 µM; in [10], 3.52 µM; in test [9] it was 27.4 µM; in test [3] it was 34.1 µM; in test [4], 30 µM; in test [5], 28.9 µM. The TGI in [6] stood at 32.6 µM; in test [7], 32.5 µM; in test [8], 27.1 µM.
For `CC1=Nc2ccccc2OC(C)=C1N=Nc1ccc2nc(C)[nH]c2c1`, the TGI in test [1], in [2], in test [10], in [9], in [4] and in test [5] was greater than 100 µM throughout. For the same compound, the TGI in [6], in [7] and in [8] was greater than 100 µM in each case.
In the case of `O=C(C1OC1c1ccc(Br)cc1O)C12CC3CC(CC(C3)C1)C2` (configuration not stated), the TGI is 32.8 µM in [1]; greater than 100 µM in test [2]; greater than 100 µM in test [10]; 47.8 µM in test [3]; 81.3 µM in test [4]; 84.6 µM in test [5]. Also, the TGI in test [6] was 43 µM; in test [7] it was greater than 100 µM; in test [8], 44.8 µM.
Take `c1ccc2c3[nH]c(c2c1)=Nc1ccc(cc1)-c1nc2cc(ccc2o1)N=c1[nH]c(c2ccccc12)=Nc1ccc2nc(oc2c1)-c1ccc(cc1)N=3`: the TGI in test [1], in [10], in test [9], in test [3], in test [4] and in test [6] was greater than 100 µM throughout. In test [8], the TGI was greater than 100 µM.
For `CCOC(=O)c1c(CN2CCCC2)n(-c2ccccc2)c2cc(Br)c(O)cc12`, the TGI in [1] was determined as 32.2 µM; in [2], 47 µM; in [10] it was 57.9 µM; in test [9], 55.8 µM; in test [3], 74.9 µM; in test [4], 42.8 µM. Also, the TGI in test [5] stood at 30.3 µM; in test [6] it was 32 µM; in test [8], 41.2 µM.
With `Oc1ccc2c(c1)c1c(n2CCN2CCOCC2)-c2ccccc2CC1`, the TGI in [1] is greater than 100 µM; in [10] it was 74.2 µM; in [9] it was greater than 100 µM; in test [3] it was 56.9 µM; in test [4] it was 82.1 µM; in test [5], 49.5 µM. The TGI in test [6] is greater than 100 µM; in test [7], 44.9 µM; in test [8], greater than 100 µM.
Take `O=C(NCc1ccccc1)c1n[nH][nH]c1=O`: the TGI in [1], in test [2], in test [10], in test [9], in [3] and in test [4] was greater than 100 µM each time. Moreover, the TGI in test [5], in test [6] and in test [8] was greater than 100 µM in each case.
Regarding `Nc1nc(-c2ccccc2)nc2oc(-c3cccs3)nc12`, the TGI in [2], in [10], in test [9], in test [3], in test [4] and in [5] was greater than 100 µM in each case. In addition, the TGI in test [6], in test [7] and in test [8] was greater than 100 µM in each case.
`Cc1cc(Nc2ccc(S(=O)(=O)O)c3cc(S(=O)(=O)O)cc(S(=O)(=O)O)c23)c2ccccc2n1`: the TGI in test [1], in test [2], in test [10], in test [9], in [3] and in [4] was greater than 100 µM throughout. The TGI in test [5], in test [6] and in test [7] was greater than 100 µM throughout.
Take `Oc1ccc(Cc2cc(Cc3ccc(O)cc3)cc(Cc3ccc(O)cc3)c2)cc1`: the TGI in test [1], in test [10], in test [9], in test [3], in test [5] and in [6] was greater than 50 µM in each case. Moreover, the TGI in [7] and in test [8] was greater than 50 µM in each case.
